Measurements taken from patent US20260184675A1, “CHIRAL ISOMERIC SULFITE COMPOUND AND APPLICATION THEREOF” (Chengdu Hanova BioSciences Co., Ltd, priority 2024, published 2026).

How the values were obtained:
[1] = test system: eggs of Thrips; experiment: Effect on hatching of eggs of Thrips, leaf disc method; format: in vivo; conditions: 100 ppm; for Hatching rate (%): 5 days after insecticide delivery
Procedure, shortened: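 Thrip egg hatching was tested by the leaf disc method on Vicia faba discs 2.0 cm across, placed over wetted filter paper. Egg numbers on each disc were counted under a microscope before treatment. Discs were then dipped for 10 seconds in clean water or a compound solution at 100 ppm. They were kept moist under normal conditions, and hatching was surveyed five days after insecticide delivery.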

[2] = test system: eggs of Aleyrodidae; experiment: Effect on hatching of eggs of Aleyrodidae, leaf disc method; format: in vivo; conditions: 10 ppm; for Hatching rate (%), Replicate 1 / Hatching rate (%), Replicate 2 / Hatching rate (%), Replicate 3 / Number of hatched larvae 5 days after insecticide delivery, Replicate 1 / Number of hatched larvae 5 days after insecticide delivery, Replicate 2 / Number of hatched larvae 5 days after insecticide delivery, Replicate 3: Aleyrodidae eggs; for Hatching rate (%), Replicate 1 / Hatching rate (%), Replicate 2 / Hatching rate (%), Replicate 3: 5 days after delivery; for Number of hatched larvae 5 days after insecticide delivery, Replicate 1 / Number of hatched larvae 5 days after insecticide delivery, Replicate 2 / Number of hatched larvae 5 days after insecticide delivery, Replicate 3: leaf disc
Procedure, shortened: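 Inhibition of Aleyrodidae egg hatching was tested with a leaf disc method at 10 ppm. Egg numbers on each disc were counted under a microscope before treatment. Discs bearing eggs were soaked for 10 seconds in clear water or test solution, removed, and kept under moist conditions. Hatching was checked five days after insecticide delivery and hatched larvae were counted.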

[3] = test system: eggs of Spodoptera litura; experiment: Effect on hatching of eggs of Spodoptera litura, egg piece soaking; format: in vivo; conditions: 500 ppm; for Hatching rate (%), Replicate 1 / Hatching rate (%), Replicate 2 / Hatching rate (%), Replicate 3 / Number of unhatched larvae 4 days after insecticide delivery, Replicate 1 / Number of unhatched larvae 4 days after insecticide delivery, Replicate 2 / Number of unhatched larvae 4 days after insecticide delivery, Replicate 3: Spodoptera litura eggs; for Hatching rate (%), Replicate 1 / Hatching rate (%), Replicate 2 / Hatching rate (%), Replicate 3: 4 days after delivery; for Number of unhatched larvae 4 days after insecticide delivery, Replicate 1 / Number of unhatched larvae 4 days after insecticide delivery, Replicate 2 / Number of unhatched larvae 4 days after insecticide delivery, Replicate 3: soaked 10 minutes
Procedure, shortened: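 Egg pieces of about 60 eggs were soaked 10 min in test agent at 500 ppm, blotted, then held singly at 24±1 °C, 80±10% RH, 12:12 L:D. Hatched and unhatched eggs were counted on day 4 to give hatching rate and control effect; 3 replicates.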

[4] = test system: eggs of Harmonia axyridis; experiment: Effect on hatching of eggs of Harmonia axyridis, egg card immersion; format: in vivo; conditions: 100 ppm; for Number of hatched larvae 4 days after insecticide delivery, Replicate 1 / Number of hatched larvae 4 days after insecticide delivery, Replicate 2 / Number of hatched larvae 4 days after insecticide delivery, Replicate 3: Harmonia axyridis egg cards, immersed 30 seconds; for Hatching rate (%), Replicate 1 / Hatching rate (%), Replicate 2 / Hatching rate (%), Replicate 3: Harmonia axyridis eggs, 4 days after delivery
Procedure, shortened: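 Egg cards (~20 eggs each) dipped 30 s in 100 ppm insecticide, air dried and kept moist at 27° C; 5 cards per treatment, 3 replicates. Hatching assessed 4 days after treatment against pre-treatment egg counts, and control effect calculated by formula.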

[5] = test system: Magnaporthe grisea; format: cell-based; conditions: 100 ppm; for Average antifungal rate (%) / Antifungal rate of Magnaporthe grisea (%), Replicate 1 / Antifungal rate of Magnaporthe grisea (%), Replicate 2 / Antifungal rate of Magnaporthe grisea (%), Replicate 3: 96-well plate; for Average antifungal rate (%): average of 3 replicates

| Compound | inhibitory activity on the hatching of eggs of Thrips (in words) [1] | Hatching rate (%) ([1]; Replicate 1) | Hatching rate (%) ([1]; Replicate 2) | Hatching rate (%) ([1]; Replicate 3) | Number of hatched larvae 5 days after insecticide delivery ([1]; Replicate 1) | Number of hatched larvae 5 days after insecticide delivery ([1]; Replicate 2) | Number of hatched larvae 5 days after insecticide delivery ([1]; Replicate 3) | inhibitory activity on the hatching of eggs of Aleyrodidae (in words) [2] | Hatching rate (%), Replicate 1 [2] | Hatching rate (%), Replicate 2 [2] | Hatching rate (%), Replicate 3 [2] | Number of hatched larvae 5 days after insecticide delivery, Replicate 1 [2] | Number of hatched larvae 5 days after insecticide delivery, Replicate 2 [2] | Number of hatched larvae 5 days after insecticide delivery, Replicate 3 [2] | inhibitory activity on the hatching of eggs of Spodoptera litura (in words) [3] | Hatching rate (%), Replicate 1 [3] | Hatching rate (%), Replicate 2 [3] | Hatching rate (%), Replicate 3 [3] | Number of unhatched larvae 4 days after insecticide delivery, Replicate 1 [3] | Number of unhatched larvae 4 days after insecticide delivery, Replicate 2 [3] | other results |
| --- | --- | --- | --- | --- | --- | --- | --- | --- | --- | --- | --- | --- | --- | --- | --- | --- | --- | --- | --- | --- | --- |
| CC[C@H](COc1ccc(Cl)cc1Cl)OS(=O)OCCF (stereo partly drawn) [19-(R,S)] | strong inhibitory activities | 0.00% | 0.00% | 0.00% | 0 | 0 | 0 | strong inhibitory activities | 0.00% | 0.00% | 0.00% | 0 | 0 | 0 | good inhibitory activities | 15.63% | 15.25% | 16.67% | 54 | 50 | Number of unhatched larvae 4 days after insecticide delivery, Replicate 3 [3]: 50; inhibitory activity on the hatching of eggs of Harmonia axyridis (in words) [4]: strong inhibitory activities; Number of hatched larvae 4 days after insecticide delivery, Replicate 1 [4]: 0; Number of hatched larvae 4 days after insecticide delivery, Replicate 2 [4]: 0; Number of hatched larvae 4 days after insecticide delivery, Replicate 3 [4]: 0; Hatching rate (%), Replicate 1 [4]: 0.00%; Hatching rate (%), Replicate 2 [4]: 0.00%; Hatching rate (%), Replicate 3 [4]: 0.00%; inhibitory rate against Magnaporthe grisea (in words) [5]: strong inhibitory rate; Average antifungal rate (%) [5]: 100.04%; Antifungal rate of Magnaporthe grisea (%), Replicate 1 [5]: 99.73%; Antifungal rate of Magnaporthe grisea (%), Replicate 2 [5]: 100.15%; Antifungal rate of Magnaporthe grisea (%), Replicate 3 [5]: 100.24% |
| CC[C@@H](COc1ccc(Cl)cc1Cl)OS(=O)OCCF (stereo partly drawn) [19-(S,R)] | strong inhibitory activities | 0.00% | 0.00% | 0.00% | 0 | 0 | 0 | strong inhibitory activities | 0.00% | 0.00% | 0.00% | 0 | 0 | 0 | good inhibitory activities | 15.79% | 15.38% | 15.38% | 48 | 55 | Number of unhatched larvae 4 days after insecticide delivery, Replicate 3 [3]: 44; inhibitory activity on the hatching of eggs of Harmonia axyridis (in words) [4]: strong inhibitory activities; Number of hatched larvae 4 days after insecticide delivery, Replicate 1 [4]: 0; Number of hatched larvae 4 days after insecticide delivery, Replicate 2 [4]: 0; Number of hatched larvae 4 days after insecticide delivery, Replicate 3 [4]: 0; Hatching rate (%), Replicate 1 [4]: 0.00%; Hatching rate (%), Replicate 2 [4]: 0.00%; Hatching rate (%), Replicate 3 [4]: 0.00%; inhibitory rate against Magnaporthe grisea (in words) [5]: strong inhibitory rate; Average antifungal rate (%) [5]: 99.77%; Antifungal rate of Magnaporthe grisea (%), Replicate 1 [5]: 100.10%; Antifungal rate of Magnaporthe grisea (%), Replicate 2 [5]: 99.34%; Antifungal rate of Magnaporthe grisea (%), Replicate 3 [5]: 99.87% |
